According to patent US11781160B2, “Methods for the production of methacrylates” (priority 2018, dated 2023):

Tests used:
[1] = test system: E. coli MG1655 acrR(V29G); test: Growth in MSX medium with 20% (v/v) BMA, single mutation strain; type: cell-based, Escherichia coli; details: 20% (v/v) BMA added immediately after inoculation
[2] = test system: gene transcription in strain 2; test: Transcriptome analysis with added BMA, strain 2
Experimental: Transcriptome analysis was carried out to characterize transcriptional activity in mutant microorganisms using standard methods.
Sample Preparation • 1) Streak strains onto fresh MSX agar (15 g/L) plates directly from the cryostocks and incubate overnight at 37° C. • 2) Isolate single colonies and inoculate pre-cultures in MSX, using 50 ml shake flasks. Incubate overnight at 37° C. and 250 rpm. • 3) Inoculate cultures in MSX to an initial OD600 of 0.05, using 250 mL pyrex shake flasks with 24/29 neck join. Incubate at 37° C. and 250 rpm. Do 4 biological replicates (3 replicates for sequencing plus one backup)—4 flasks per strain. • 4) Seal shake flasks with sterile Suba seals. To monitor OD, take samples using a sterile syringe and needle after first swabbing the Suba seals with 70% ethanol. Monitor OD. • 5) When OD reaches 0.3, collect first sample for RNA extraction (“before” sample) into a pre-chilled falcon. Keep samples on ice. • 6) Immediately after, add 20% (v/v) BMA. Re-incubate cultures. • 7) Quickly process the samples according to the RNeasy kit protocol, until step 6 of protocol 1. Always keep samples on ice and store it at −80° C. until further use, if possible, flash freeze in liquid nitrogen it before storing. • 8) One hour after the first sample collection/BMA addition, collect the second sample for RNA extraction (“after” sample). Proceed as explained before. • 9) Continue to monitor the OD until the cultures reach 24 h. • To summarise, each strain tested will have 6 samples to send for sequencing, 3 collected right before the addition and 3 collected one hour after, plus 1 “back-up” for before and after, in case something goes wrong during extraction (8 samples total). Besides the WT strain with the addition of BMA, samples were also collected from a WT culture with no BMA, one hour after reaching OD of 0.3, as a control.
Transcription was compared for a double mutant and the wild-type in the presence and absence of BMA relative to the level in the wild type in the absence of BMA. For the avoidance of doubt the level in the table is the ratio of the level in the strain under the BMA exposure relative to the level in the wild type in the absence of added BMA.

[3] = test system: E. coli MG1655 soxR(R20H)acrR(T32fs); test: Growth in MSX medium with 20% (v/v) BMA, double mutant; type: cell-based, Escherichia coli
[4] = test system: E. coli BW25113 isolate 23-soxR(R20L) rpoC(r1075C) 2133236( T> A) 3915915(T > G) acrR(indels); test: Growth kinetics of isolated strain 23 with 20% v/v BMA
[5] = test system: E. coli MG1655 acrR(T32fs); test: Growth in MSX medium with 20% (v/v) BMA, single mutation strain; type: cell-based, Escherichia coli; details: 20% (v/v) BMA added immediately after inoculation
[6] = test system: E. coli BW25113 isolate 5-soxR(Leu139X), 580116(G > T) acrR(indels); test: Growth kinetics of isolated strain 5 with 20% v/v BMA
E. coli BW25113 ΔsoxR = test: Growth in MSX medium with 20% (v/v) BMA, knock-out strain; type: cell-based, Escherichia coli; details: 20% (v/v) BMA added immediately after inoculation
[7] = test system: E. coli BW25113 isolate 22-rob(R156H) rpoB(T1037P) groL(P279L) acrR(49Yfs) 1197659(C > A); test: Growth kinetics of isolated strain 22 with 20% v/v BMA
[8] = test system: E. coli BW25113 isolate 20-marR(V84G) rpoC(R1075C) ompR(R15S) acrR(indels); test: Growth kinetics of isolated strain 20 with 20% v/v BMA
[9] = 20% (v/v) BMA added immediately after inoculation

## C=C(C)C(=O)OCCCC [BMA, butyl 2-methylprop-2-enoate]
[1]
  Growth in the presence of BMA: able to grow
[2]
  IdhA transcription level relative to wild type without BMA: 11.32
  acrA transcription level relative to wild type without BMA: 7.33
  acrB transcription level relative to wild type without BMA: 6.68
  adiY transcription level relative to wild type without BMA: 5.37
  ariR transcription level relative to wild type without BMA: 35.30
  asr transcription level relative to wild type without BMA: 95.27
  bssR transcription level relative to wild type without BMA: 15.30
  ibpA transcription level relative to wild type without BMA: 20.83
  ibpB transcription level relative to wild type without BMA: 84.03
  narG transcription level relative to wild type without BMA: 11.38
  nirB transcription level relative to wild type without BMA: 8.77
  nirD transcription level relative to wild type without BMA: 4.33
  pspA transcription level relative to wild type without BMA: 15.40
  pspB transcription level relative to wild type without BMA: 11.46
  pspD transcription level relative to wild type without BMA: 11.22
  pspc transcription level relative to wild type without BMA: 11.88
  raiA transcription level relative to wild type without BMA: 14.09
  rmf transcription level relative to wild type without BMA: 7.05
  soxS transcription level relative to wild type without BMA: 4.10
  spy transcription level relative to wild type without BMA: 22.92
  ybfA transcription level relative to wild type without BMA: 18.45
  ybhG transcription level relative to wild type without BMA: 6.87
  ybiH transcription level relative to wild type without BMA: 8.65
  ydgU transcription level relative to wild type without BMA: 31.80
  yhjx transcription level relative to wild type without BMA: 7.35
  yibT transcription level relative to wild type without BMA: 36.87
  ymgA transcription level relative to wild type without BMA: 35.59
  ymgC transcription level relative to wild type without BMA: 42.36
  ynfM transcription level relative to wild type without BMA: 14.42
  yohk transcription level relative to wild type without BMA: 8.45
[3]; 20% (v/v) BMA added during mid-exponential phase
  Tolerance to BMA: enhanced tolerance to BMA compared to the soxR(R20H) mutation alone
[3]; [9]
  Growth compared with the single mutant with the soxR mutation: able to grow better than the single mutant
  Growth in the presence of BMA: able to grow
[4]
  Growth rate: 0.722 ± 0.019 h⁻¹
  Lag time: 4 h
  Max cell concentration: 0.529 ± 0.023 g/L
[5]
  Growth in the presence of BMA: able to grow
[6]
  Growth rate: 0.625 ± 0.052 h⁻¹
  Lag time: 5 h
  Max cell concentration: 0.597 ± 0.096 g/L
E. coli BW25113 ΔsoxR
  Growth in the presence of BMA: unable to grow
[7]
  Growth rate: 0.701 ± 0.015 h⁻¹
  Lag time: 4 h
  Max cell concentration: 0.523 ± 0.024 g/L
[8]
  Growth rate: 0.719 ± 0.041 h⁻¹
  Lag time: 5 h
  Max cell concentration: 0.589 ± 0.012 g/L
